# Laboratory results: patent US20100331410A1, “Biaryl Amides” (Asterand UK Limited, priority 2008, published 2010)
row,Compound,melting point [°C]
1,"NC(=O)COc1cccc(NC(=O)c2cc(-c3cccc(F)c3)ccc2F)c1 [Compound 3, 3-[(3′-Fluoro-4-fluorobiphenyl-3-carbonyl)amino]phenoxyacetamide]",203 to 206
2,"O=C(COc1cccc(NC(=O)c2cc(-c3cccc(F)c3)ccc2F)c1)OCCO [Compound 1, 3-[(3′-Fluoro-4-fluorobiphenyl-3-carbonyl)amino]phenoxyacetic acid, ethylene glycol ester]",135 to 137
3,"COC(=O)COc1cccc(NC(=O)c2cc(-c3cccc(F)c3)ccc2F)c1 [Compound 4, 3-[(3′-Fluoro-4-fluorobiphenyl-3-carbonyl)amino]phenoxyacetic acid, methyl ester]",103 to 104
4,"COC(=O)/C=C/c1cccc(NC(=O)c2cc(-c3cccc(F)c3)ccc2F)c1 [Compound 6, 3-[(3′-Fluoro-4-fluorobiphenyl-3-carbonyl)amino]cinnamic acid, methyl ester]",144 to 145
5,"CC(C)OC(=O)/C=C/c1cccc(NC(=O)c2cc(-c3cccc(F)c3)ccc2F)c1 [Compound 5, 3-[(3′-Fluoro-4-fluorobiphenyl-3-carbonyl)amino]cinnamic acid, isopropyl ester]",154 to 155
6,"NC(=O)/C=C/c1cccc(NC(=O)c2cc(-c3cccc(F)c3)ccc2F)c1 [Compound 7, 3-[(3′-Fluoro-4-fluorobiphenyl-3-carbonyl)amino]cinnamamide]",216 to 218
